Measured values from ChEMBL document CHEMBL1159152, “A novel bromopyrrole alkaloid from the sponge Agelas longissima with antiserotonergic activity” (Bioorg Med Chem Lett, 1995).

Assays:
Rattus norvegicus = species: Rattus norvegicus; experiment: In vitro antiserotonergic activity on rat stomach fundus strip; type: functional
[1] = molecular target: Serotonin (5-HT) receptor; experiment: Affinity against 5-hydroxytryptamine receptor was determined; type: protein assay, Rattus norvegicus

IC50 (Rattus norvegicus): 80 µM | pA2 [1]: 6.2
Structure (SMILES): O=C([O-])c1ccc[n+](CCOC(=O)c2cc(Br)c[nH]2)c1
